Results from patent publication US9464326B2, “Total and phosphorylated IL-1 receptor-associated kinase-1 and IL-1 receptor-associated kinase-4 as a biomarker for cancer progression and chemotherapy resistance” (University of Maryland, Baltimore, priority 2012, dated 2016).

Assays:
Format in all cases: cell-based, human
CEM-C1 = experiment: Proliferation (3H-thymidine) of CEM-C1
Excerpt: (§1) CCRF-CEM, CEM/C1, CEM/C2, CEM-C7, Jurkat, Loucy, Molt-4, HSB-2, SUP-T1, Hut 78, HH, Hut 102, MO, and H9 T-leukemia and T-lymphoma cell lines were purchased from the American Type Culture Collection (Manassas, Va., USA). All of the cell lines were initially expanded and cryopreserved within one month of receipt. Cells were typically used for 6 months at which time a fresh vial of cryopreserved cells was used. Total T cells from healthy donors were isolated via negative selection followed by positive selection using a CD3+ selection kit (Invitrogen, Carlsbad, Calif.). T cells were isolated from patients with T-ALL bone marrow or peripheral blood samples containing more than 70% leukemia cells using a CD2+ isolation kit (STEMCELL Technologies, Vancouver, Canada). All tissues were collected under institutional IRB-approved protocols and all participants gave written informed assent/consent. For in vitro experiments, T-ALL cells were cultured in AIM-V medium supplemented with 20% human AB serum in the presence of recombinant human stem cell factor (50 ng/mL; Amgen, Thousand Oaks, Calif.), insulin (20 nM; Sigma-Aldrich, St Louis, Mo., USA) and IL-7 (50 ng/mL; R&D Systems, Minneapolis, Minn., USA). In other experiments, protein lysate was collected using the Full Moon Biosystems (Sunnyvale, Calif., USA) buffer prior to protein examination by western blot or protein array.
(§2) Cells were cultured in a 96-well plate (Corning Costar, Corning, N.Y., USA) with various concentrations of TLR ligands 1-9, starting at 10 μg/ml, in a final volume of 200 ul. TLR ligands were diluted 2-fold. Cell lines (25-40×10^3/well) were cultured for 54 hours, whereas fresh patient-derived T-ALL cells (200×10^3/well) were cultured for 30 hours prior to adding [^3H]-thymidine for 18 hours. After this time point, cells were harvested with a Packard Filter-Mate-96 cell harvester (Perkin Elmer, Waltham, Mass., USA) and counted on Packard Top Count-NXT (Perkin Elmer, Waltham, Mass., USA). Results were expressed as average counts per minute (cpm). In some experiments CCRF-CEM cells were pre-treated with TLR1-TLR2 ligand (Pam3CysK4; 2.5 ug/ml) for 48 hrs, washed, and then cultured in the presence of varying concentrations of FBS. Forty-eight hours later, proliferation (±SD) was determined by ^3H-thymidine incorporation. Alternatively, apoptosis was measured by flow cytometry after staining cells with Annexin-V (BD Pharmingen, San Diego, Calif., USA) and propidium iodide (Sigma). Cell number was counted under microscopy by staining cells with trypan blue. […]

Jurkat = experiment: Proliferation (3H-thymidine) of Jurkat; conditions: 3H-thymidine uptake, 72 h
Excerpt: as §1, §2

Hut-78 = experiment: Proliferation (3H-thymidine) of Hut-78; conditions: 3H-thymidine uptake, 72 h
Excerpt: as §1, with “In other experiments, protein lysate was collected using the Full Moon Biosystems (Sunnyvale, Calif., USA) buffer prior to protein examination by western blot or protein array.” left out
as §2, with “TLR ligands were diluted 2-fold. Cell lines (25-40×10^3/well) were cultured for 54 hours, whereas fresh patient-derived T-ALL cells (200×10^3/well) were cultured for 30 hours prior to adding [^3H]-thymidine for 18 hours.” left out, “In some experiments CCRF-CEM cells were pre-treated with TLR1-TLR2 ligand (Pam3CysK4; 2.5 ug/ml) for 48 hrs, washed, and then cultured in the presence of varying concentrations of FBS.” left out

Hut 102 = experiment: Proliferation (3H-thymidine) of Hut 102; conditions: 3H-thymidine uptake, 72 h
Excerpt: as §1, with “In other experiments, protein lysate was collected using the Full Moon Biosystems (Sunnyvale, Calif., USA) buffer prior to protein examination by western blot or protein array.” left out
as §2, with “TLR ligands were diluted 2-fold. Cell lines (25-40×10^3/well) were cultured for 54 hours, whereas fresh patient-derived T-ALL cells (200×10^3/well) were cultured for 30 hours prior to adding [^3H]-thymidine for 18 hours.” left out, “In some experiments CCRF-CEM cells were pre-treated with TLR1-TLR2 ligand (Pam3CysK4; 2.5 ug/ml) for 48 hrs, washed, and then cultured in the presence of varying concentrations of FBS.” left out

MO = experiment: Proliferation (3H-thymidine) of MO; conditions: 3H-thymidine uptake, 72 h
Excerpt: as §1, with “In other experiments, protein lysate was collected using the Full Moon Biosystems (Sunnyvale, Calif., USA) buffer prior to protein examination by western blot or protein array.” left out
as §2, with “TLR ligands were diluted 2-fold. Cell lines (25-40×10^3/well) were cultured for 54 hours, whereas fresh patient-derived T-ALL cells (200×10^3/well) were cultured for 30 hours prior to adding [^3H]-thymidine for 18 hours.” left out, “In some experiments CCRF-CEM cells were pre-treated with TLR1-TLR2 ligand (Pam3CysK4; 2.5 ug/ml) for 48 hrs, washed, and then cultured in the presence of varying concentrations of FBS.” left out

G361 melanoma cells = experiment: Western blot of IRAK phosphorylation in G361; conditions: Pam3CysK4 2.5 μg/ml or flagellin 100 ng/ml, 48 hours, FIG. 22B
Experimental: FIG. 22. Effects of TLR stimulation and cytokines on IRAK phosphorylation in melanoma cells. (A) A375 cells were cultured in the presence of anti-IL-18, anti-CXCL-1, (R&D Systems), anti-IL-1 (BioLegend), or mouse IgG (Sigma-Aldrich) all at 10 μg/ml. Forty-eight hours later the levels of the indicated proteins were determined by western blot. (B) A375 cells, which express p-IRAK-1 and p-IRAK-4, and G361 melanoma cells, which express very low levels of p-IRAK-1 (and express TLR5) were cultured in the presence of TLR1-TLR2 agonist (Pam3CysK4; 2.5 μg/ml) or TLR5 (flagellin; 100 ng/ml; InVivogen). Forty-eight hours later total protein was collected and the levels of the indicated proteins were examined by western blot.
Total cell extracts were prepared from melanoma cells. […] Melanoma tissue arrays were purchased from US Biomax, Inc (Rockville, Md.). For immunohistochemical staining samples were stained with mouse monoclonal anti-human phosphor-IRAK.-4 antibody (Abnova; dilution, 3.5 μg/ml) or normal mouse serum. Tissue histology sections (5-μm-thick) were deparaffinized, hydrated, heated in boiling 10 mmol/L sodium citrate (pH 6.0), for antigen retrieval, for 30 min and washed in Tris buffer. Peroxide blocking was done with 3% […] in methanol at room temperature for 15 min, followed by 10% fetal bovine serum in TBS-t for 30 min at room temperature. Primary antibody incubation was done overnight at 4° C. Secondary antibody incubation with horse anti-mouse (1:200; Vector Laboratories, Burlingame, Calif.) was done for 1 hr, followed by application of diaminobenzidine chromogen for 5 min. The slides were then counterstained with hematoxylin and topped with a coverslip. IHC specimens were analyzed using “quick score” system in which the intensity of the immunohistochemical reaction was scored by multiplying the intensity 1 (weak), 2 (moderate), and 3 (strong) and the proportion of cells staining positively 0 (<10%), 1 (10-25%), 2 (26-50%), 3 (51-75%) or 4 (>75%).

## tripalmitoyl-S-(bis(palmitoyloxy)propyl)-Cys-Ser-(Lys)3-Lys [Pam3Cysk4]
CEM-C1; 3H-thymidine uptake, 72 h
  Proliferative effects of TLR ligands: + (enhanced proliferation by 25% or greater)
CEM-C1; no unit in table (μg/ml)
  TLR ligand concentration in parentheses below the symbol: (2.5)
Jurkat
  Proliferative effects of TLR ligands: ∘
Hut-78
  Proliferative effects of TLR ligands: ∘
Hut 102
  Proliferative effects of TLR ligands: ∘
MO
  Proliferative effects of TLR ligands: ∘
G361 melanoma cells
  p-IRAK-1 or p-IRAK-4 expression levels: neither TLR-1-TLR2 agonist (Pam3CysK4), nor TLR5 (Flagellin) stimulation increased or induced
